Reference: PubChem BioAssay AID1963974 (Molecular Pharmacology Branch, DTP, NCI, 2024)
pIC50: −log10 of the molar value.

Tested on: 648629-189-R-J1-PDC spheroids with HUVEC/MSC, viability
Assay: Anticancer human tumor 648629-189-R-J1-PDC patient-derived bladder carcinoma cell line growth inhibition [PI3K]
Conditions: for pIC50: curve of first compound; for viability, T/C: stronger effect = lower value
Procedure, shortened: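 Stroma-containing spheroids: tumor line, pooled-donor HUVEC, hMSC. Treatments: targeted agents with PI3K inhibitors. Dosing: clinically relevant, half-log spacing, 10 microM ceiling without known Cmax. Read-out: cell viability.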

[1] = second compound 0.0316 µM, first compound 0.0316 µM
[2] = second compound 0.0316 µM, first compound 0.1 µM
[3] = second compound 0.1 µM, first compound 0.0316 µM
[4] = second compound 0.1 µM, first compound 0.1 µM
[5] = second compound 0.316 µM, first compound 0.0316 µM
[6] = second compound 0.316 µM, first compound 0.1 µM
[7] = second compound 1 µM, first compound 0.0316 µM
[8] = second compound 1 µM, first compound 0.1 µM
[9] = second compound 3.16 µM, first compound 0.0316 µM
[10] = second compound 3.16 µM, first compound 0.1 µM
[11] = second compound 10 µM, first compound 0.0316 µM
[12] = second compound 10 µM, first compound 0.1 µM
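Also: spheroids exposed to agents for seven days before reading.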
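For viability, T/C in this document: percent of vehicle control luminescence where 100% = DMSO treated spheroids.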

Structure (SMILES): CC(=O)c1c(C)c2cnc(Nc3ccc(N4CCNCC4)cn3)nc2n(C2CCCC2)c1=O + Cc1nc(NC(=O)N2CCCC2C(N)=O)sc1-c1ccnc(C(C)(C)C(F)(F)F)c1
- pIC50 (second compound 0.0316 µM): < 7.00
- pIC50 (second compound 0.1 µM): < 7.00
- pIC50 (second compound 0.316 µM): < 7.00
- pIC50 (second compound 1 µM): < 7.00
- pIC50 (second compound 3.16 µM): < 7.00
- pIC50 (second compound 10 µM): > 9.50
- viability, T/C (second compound 0.0316 µM, first compound 0.000316 µM): 91.4%
- viability, T/C (second compound 0.0316 µM, first compound 0.001 µM): 91.7%
- viability, T/C (second compound 0.0316 µM, first compound 0.00316 µM): 100%
- viability, T/C (second compound 0.0316 µM, first compound 0.01 µM): 100%
- viability, T/C [1]: 96.6%
- viability, T/C [2]: 101%
- viability, T/C (second compound 0.1 µM, first compound 0.000316 µM): 91.1%
- viability, T/C (second compound 0.1 µM, first compound 0.001 µM): 96.9%
- viability, T/C (second compound 0.1 µM, first compound 0.00316 µM): 93.7%
- viability, T/C (second compound 0.1 µM, first compound 0.01 µM): 91.9%
- viability, T/C [3]: 107%
- viability, T/C [4]: 91.2%
- viability, T/C (second compound 0.316 µM, first compound 0.000316 µM): 80.9%
- viability, T/C (second compound 0.316 µM, first compound 0.001 µM): 86.1%
- viability, T/C (second compound 0.316 µM, first compound 0.00316 µM): 85.1%
- viability, T/C (second compound 0.316 µM, first compound 0.01 µM): 84.1%
- viability, T/C [5]: 90.2%
- viability, T/C [6]: 85.3%
- viability, T/C (second compound 1 µM, first compound 0.000316 µM): 72.4%
- viability, T/C (second compound 1 µM, first compound 0.001 µM): 68.1%
- viability, T/C (second compound 1 µM, first compound 0.00316 µM): 73.7%
- viability, T/C (second compound 1 µM, first compound 0.01 µM): 71.7%
- viability, T/C [7]: 70.5%
- viability, T/C [8]: 71.9%
- viability, T/C (second compound 3.16 µM, first compound 0.000316 µM): 52.6%
- viability, T/C (second compound 3.16 µM, first compound 0.001 µM): 53.2%
- viability, T/C (second compound 3.16 µM, first compound 0.00316 µM): 61.6%
- viability, T/C (second compound 3.16 µM, first compound 0.01 µM): 54.9%
- viability, T/C [9]: 54.6%
- viability, T/C [10]: 54.6%
- viability, T/C (second compound 10 µM, first compound 0.000316 µM): 36.5%
- viability, T/C (second compound 10 µM, first compound 0.001 µM): 44.9%
- viability, T/C (second compound 10 µM, first compound 0.00316 µM): 38.9%
- viability, T/C (second compound 10 µM, first compound 0.01 µM): 30.1%
- viability, T/C [11]: 44.1%
- viability, T/C [12]: 34%

Structure (SMILES): CNC(=O)c1ccc(N2C(=S)N(c3ccc(C#N)c(C(F)(F)F)c3)C(=O)C2(C)C)cc1F + Cc1nc(NC(=O)N2CCCC2C(N)=O)sc1-c1ccnc(C(C)(C)C(F)(F)F)c1
- pIC50 (second compound 0.0316 µM): < 5.00
- pIC50 (second compound 0.1 µM): < 5.00
- pIC50 (second compound 0.316 µM): < 5.00
- pIC50 (second compound 1 µM): < 5.00
- pIC50 (second compound 3.16 µM): < 5.00
- pIC50 (second compound 10 µM): > 7.50
- viability, T/C [1]: 106%
- viability, T/C [2]: 105%
- viability, T/C (second compound 0.0316 µM, first compound 0.316 µM): 118%
- viability, T/C (second compound 0.0316 µM, first compound 1 µM): 111%
- viability, T/C (second compound 0.0316 µM, first compound 3.16 µM): 104%
- viability, T/C (second compound 0.0316 µM, first compound 10 µM): 89.7%
- viability, T/C [3]: 90.1%
- viability, T/C [4]: 92.7%
- viability, T/C (second compound 0.1 µM, first compound 0.316 µM): 106%
- viability, T/C (second compound 0.1 µM, first compound 1 µM): 102%
- viability, T/C (second compound 0.1 µM, first compound 3.16 µM): 102%
- viability, T/C (second compound 0.1 µM, first compound 10 µM): 79%
- viability, T/C [5]: 91.4%
- viability, T/C [6]: 99.7%
- viability, T/C (second compound 0.316 µM, first compound 0.316 µM): 98.1%
- viability, T/C (second compound 0.316 µM, first compound 1 µM): 98.4%
- viability, T/C (second compound 0.316 µM, first compound 3.16 µM): 89.7%
- viability, T/C (second compound 0.316 µM, first compound 10 µM): 72.8%
- viability, T/C [7]: 73.2%
- viability, T/C [8]: 82.3%
- viability, T/C (second compound 1 µM, first compound 0.316 µM): 76.7%
- viability, T/C (second compound 1 µM, first compound 1 µM): 81.1%
- viability, T/C (second compound 1 µM, first compound 3.16 µM): 78.6%
- viability, T/C (second compound 1 µM, first compound 10 µM): 75.2%
- viability, T/C [9]: 64%
- viability, T/C [10]: 67.1%
- viability, T/C (second compound 3.16 µM, first compound 0.316 µM): 55.1%
- viability, T/C (second compound 3.16 µM, first compound 1 µM): 60.7%
- viability, T/C (second compound 3.16 µM, first compound 3.16 µM): 64.7%
- viability, T/C (second compound 3.16 µM, first compound 10 µM): 63.2%
- viability, T/C [11]: 40.3%
- viability, T/C [12]: 44.1%
- viability, T/C (second compound 10 µM, first compound 0.316 µM): 40.2%
- viability, T/C (second compound 10 µM, first compound 1 µM): 42%
- viability, T/C (second compound 10 µM, first compound 3.16 µM): 45.7%
- viability, T/C (second compound 10 µM, first compound 10 µM): 48.6%

Structure (SMILES): Cn1cnc2c(F)c(Nc3ccc(Br)cc3Cl)c(C(=O)NOCCO)cc21 + Cc1nc(NC(=O)N2CCCC2C(N)=O)sc1-c1ccnc(C(C)(C)C(F)(F)F)c1
- pIC50 (second compound 0.0316 µM): < 5.52
- pIC50 (second compound 0.1 µM): < 5.52
- pIC50 (second compound 0.316 µM): < 5.52
- pIC50 (second compound 1 µM): < 5.52
- pIC50 (second compound 3.16 µM): < 5.52
- pIC50 (second compound 10 µM): > 8.02
- viability, T/C (second compound 0.0316 µM, first compound 0.00949 µM): 94.3%
- viability, T/C (second compound 0.0316 µM, first compound 0.03 µM): 95.2%
- viability, T/C (second compound 0.0316 µM, first compound 0.0949 µM): 99%
- viability, T/C (second compound 0.0316 µM, first compound 0.3 µM): 90%
- viability, T/C (second compound 0.0316 µM, first compound 0.949 µM): 93%
- viability, T/C (second compound 0.0316 µM, first compound 3 µM): 70.5%
- viability, T/C (second compound 0.1 µM, first compound 0.00949 µM): 92.8%
- viability, T/C (second compound 0.1 µM, first compound 0.03 µM): 90.7%
- viability, T/C (second compound 0.1 µM, first compound 0.0949 µM): 98.1%
- viability, T/C (second compound 0.1 µM, first compound 0.3 µM): 95.4%
- viability, T/C (second compound 0.1 µM, first compound 0.949 µM): 86.2%
- viability, T/C (second compound 0.1 µM, first compound 3 µM): 75.8%
- viability, T/C (second compound 0.316 µM, first compound 0.00949 µM): 94.6%
- viability, T/C (second compound 0.316 µM, first compound 0.03 µM): 93.8%
- viability, T/C (second compound 0.316 µM, first compound 0.0949 µM): 77.2%
- viability, T/C (second compound 0.316 µM, first compound 0.3 µM): 85.2%
- viability, T/C (second compound 0.316 µM, first compound 0.949 µM): 81.7%
- viability, T/C (second compound 0.316 µM, first compound 3 µM): 72.4%
- viability, T/C (second compound 1 µM, first compound 0.00949 µM): 80.7%
- viability, T/C (second compound 1 µM, first compound 0.03 µM): 78.2%
- viability, T/C (second compound 1 µM, first compound 0.0949 µM): 71.3%
- viability, T/C (second compound 1 µM, first compound 0.3 µM): 75.5%
- viability, T/C (second compound 1 µM, first compound 0.949 µM): 72.9%
- viability, T/C (second compound 1 µM, first compound 3 µM): 64.2%
- viability, T/C (second compound 3.16 µM, first compound 0.00949 µM): 54.6%
- viability, T/C (second compound 3.16 µM, first compound 0.03 µM): 60.1%
- viability, T/C (second compound 3.16 µM, first compound 0.0949 µM): 59.2%
- viability, T/C (second compound 3.16 µM, first compound 0.3 µM): 52.1%
- viability, T/C (second compound 3.16 µM, first compound 0.949 µM): 57.1%
- viability, T/C (second compound 3.16 µM, first compound 3 µM): 52.7%
- viability, T/C (second compound 10 µM, first compound 0.00949 µM): 39.5%
- viability, T/C (second compound 10 µM, first compound 0.03 µM): 34.4%
- viability, T/C (second compound 10 µM, first compound 0.0949 µM): 34.7%
- viability, T/C (second compound 10 µM, first compound 0.3 µM): 40.2%
- viability, T/C (second compound 10 µM, first compound 0.949 µM): 44.8%
- viability, T/C (second compound 10 µM, first compound 3 µM): 38.1%
